The results in this text go back to patent publication US12466809B2, “CDK2/5 degraders and uses thereof” (DANA-FARBER CANCER INSTITUTE, INC., priority 2019, dated 2025).

The term IC50 denotes the concentration that inhibits the measured activity by half.

Test [1] concerns the target CDK9 (Homo sapiens (Human), UniProt P50750). Put plainly: Knockdown of CDKs in Jurkat cells, immunoblot: CDK9. The format is cell-based. The settings on record: 0.25 μM, 6 hours. The procedure: Jurkat acute T cell leukemia cells were treated with 0, 0.1 μM, 1 μM, and 10 μM of compounds 1-7 or 0.25 μM THAL-SNS-032 (a known CDK9 degrader, as a positive control for CDK9 degradation) for 6 hours, and then lysed and immunoblotted with antibodies to CDK1, CDK2, CDK5, CDK7, CDK9, CDK12, CDK13 and R-Actin (FIG. 1A-FIG. 2B).
(In western blotting, separated proteins are transferred to a membrane and probed.)

Test [2] has as its target CDK2/Cyclin A (Homo sapiens (Human), UniProt P24941). The test is described as follows: Invitrogen Z'-LYTE kinase assay CDK2/Cyclin A (assay ID 315, Km app, 10-point titration). It counts as biochemical. The settings on record: Km app ATP. An excerpt: (§1) CDK2 and CDK5 IC50 data were attained through the use of Invitrogen™ commercial assays. The method for CDK2 (assay ID: 315, kinase|Z'-LYTE™|CDK2/Cyclin A|Km app) used a 10-point titration. The method for CDK5 (assay ID: 318, kinase|Z'-LYTE™|CDK5/p25|Km app) used a 10-point titration.

In test [3] the target is CDK5/p25 (Homo sapiens (Human), UniProt Q00535). Put plainly: Invitrogen Z'-LYTE kinase assay CDK5/p25 (assay ID 318, Km app, 10-point titration). The format is biochemical. The following applies: CDK5/p25, Km app ATP.
From the text: as §1

Test [4] addresses CDK2 (Homo sapiens (Human), UniProt P24941). The test is described as follows: Knockdown of CDK2/5 in OVCAR8 cells, immunoblot: CDK2. The format is cell-based. The settings on record: various concentrations, 6 hours.
Test [5] has as its target CDK5 (Homo sapiens (Human), UniProt Q00535). Put plainly: Knockdown of CDK2/5 in OVCAR8 cells, immunoblot: CDK5. The format is cell-based. The following applies: various concentrations, 6 hours.

Molecules are shown by their SMILES.

CDK5/p25, sequence (Q00535 whole entry): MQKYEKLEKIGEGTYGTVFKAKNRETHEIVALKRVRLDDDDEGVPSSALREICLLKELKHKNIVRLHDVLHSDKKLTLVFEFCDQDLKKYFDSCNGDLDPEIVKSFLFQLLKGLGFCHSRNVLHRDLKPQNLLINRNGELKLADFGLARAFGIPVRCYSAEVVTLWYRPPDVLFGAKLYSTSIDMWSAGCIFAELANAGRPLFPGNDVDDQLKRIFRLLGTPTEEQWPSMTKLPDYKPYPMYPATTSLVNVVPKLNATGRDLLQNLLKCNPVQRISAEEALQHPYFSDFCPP
CDK5/p25, sequence (Q15078 99-307 partner): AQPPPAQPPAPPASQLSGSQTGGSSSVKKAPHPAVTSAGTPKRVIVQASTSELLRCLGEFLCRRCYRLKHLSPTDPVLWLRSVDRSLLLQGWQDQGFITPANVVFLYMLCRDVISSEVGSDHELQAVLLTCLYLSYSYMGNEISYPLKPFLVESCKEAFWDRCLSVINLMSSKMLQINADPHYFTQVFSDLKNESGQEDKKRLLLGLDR
CDK9, sequence (P50750 whole entry): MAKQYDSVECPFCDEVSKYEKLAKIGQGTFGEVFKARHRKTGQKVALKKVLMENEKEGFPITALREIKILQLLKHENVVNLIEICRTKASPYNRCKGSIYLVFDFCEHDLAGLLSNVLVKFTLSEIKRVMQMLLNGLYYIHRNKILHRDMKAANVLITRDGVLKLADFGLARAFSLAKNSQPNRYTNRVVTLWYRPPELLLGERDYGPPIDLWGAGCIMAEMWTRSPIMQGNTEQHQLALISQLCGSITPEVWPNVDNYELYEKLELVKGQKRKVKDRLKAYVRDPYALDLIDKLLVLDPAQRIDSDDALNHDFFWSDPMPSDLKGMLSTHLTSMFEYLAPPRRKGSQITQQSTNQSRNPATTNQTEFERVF
CDK5, sequence (Q00535 whole entry): as the sequence (Q00535 whole entry) above

With `CC(C)(C)c1cnc(CSc2cnc(NC(=O)C3CCN(CC(=O)NCCOCCOCCOCCNc4cccc5c4C(=O)N(C4CCC(=O)NC4=O)C5=O)CC3)s2)o1` (stereo not drawn) [THAL-SNS-032], the CDK9 degradation result in test [1] is “induced CDK9 degradation”.
Consider `NC(=O)c1c(F)cccc1Nc1nc(NC2CCN(S(=O)(=O)CCNC(=O)CCCCCCCCOc3cccc4c3C(=O)N(C3CCC(=O)NC3=O)C4=O)CC2)ncc1Br` (stereo not drawn) [Compound 5, 2-((5-bromo-2-((1-((2-(9-((2-(2,6-dioxopiperidin-3-yl)-1,3-dioxoisoindolin-4-yl)oxy)nonanamido)ethyl)sulfonyl)piperidin-4-yl)amino)pyrimidin-4-yl)amino)-6-fluorobenzamide], for which the IC50 came to 28.7 nM in test [2] and 16.1 nM in test [3]. Further, in test [4], the “knockdown of CDK2” value is recorded as “selective knockdown”. In test [5], the “knockdown of CDK5” value is on record as “selective knockdown”.
`NC(=O)c1c(F)cccc1Nc1nc(NC2CCN(S(=O)(=O)CCNC(=O)CCOCCOCCOCCOCCNc3cccc4c3C(=O)N(C3CCC(=O)NC3=O)C4=O)CC2)ncc1Br` (stereo not drawn) [Compound 1, N-(2-((4-((5-bromo-4-((2-carbamoyl-3-fluorophenyl)amino)pyrimidin-2-yl)amino)piperidin-1-yl)sulfonyl)ethyl)-1-((2-(2,6-dioxopiperidin-3-yl)-1,3-dioxoisoindolin-4-yl)amino)-3,6,9,12-tetraoxapentadecan-15-amide]: the results for the half-inhibitory concentration (IC50) in test [2] and in test [3] were 6.4 nM and 8.1 nM, respectively.
The corresponding values for `Cc1cc(Nc2ncc(Br)c(Nc3cccc(F)c3C(N)=O)n2)ccc1S(=O)(=O)NCCOCCOCCOCCOCCNc1cccc2c1C(=O)N(C1CCC(=O)NC1=O)C2=O` (stereo not drawn) [Compound 25, 2-((5-bromo-2-((4-(N-(14-((2-(2,6-dioxopiperidin-3-yl)-1,3-dioxoisoindolin-4-yl)amino)-3,6,9,12-tetraoxatetradecyl)sulfamoyl)-3-methylphenyl)amino)pyrimidin-4-yl)amino)-6-fluorobenzamide] are 8.1 nM and 7.1 nM.
